{"source": "patent US8987195B2", "about": "(priority 2012, dated 2015)", "key": {"[1]": {"biological_target": "HCV NS3/4A protease genotype 1b (Hepatitis C virus genotype 1b, UniProt P26663)", "experiment": "HCV NS3/4A protease time-resolved fluorescence (TRF) assay, Ki against genotype 1b", "type": "biochemical", "procedure,_shortened": "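NS3/4A enzyme was preincubated 30 min with inhibitor in 50 mM HEPES pH 7.5, 150 mM NaCl, 15% glycerol, 0.15% Triton X-100, 10 mM DTT, 0.1% PEG 8000; 25 nM europium TRF peptide substrate added, 2.5 h at room temperature. Enzyme: 0.2 nM (1b), 0.4 nM (A156T), 0.025 nM (3a). Ki from IC50 via Cheng-Prusoff.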"}, "[2]": {"biological_target": "HCV NS3/4A protease A156T mutant (Hepatitis C virus genotype 1b, UniProt P26663, A1182T)", "experiment": "HCV NS3/4A protease time-resolved fluorescence (TRF) assay, Ki against A156T mutant", "type": "biochemical", "details": "read-out: IC50 [gt-1b A156T]", "description": "(§1) Measuring NS3/4A Inhibitory Activity (Ki) Against Genotype 1b, Against A156T Mutants and Against Genotype 3a\n(§2) One assay for measuring inhibitory activity is HCV NS3 protease time-resolved fluorescence (TRF) assay as described below and in Mao et al., Anal. Biochem. 373:1-8, 2008 and International Patent Application Publication WO 2006/102087. A NS3 protease assay can be performed, for example, in a final volume of 20 μl assay buffer containing 50 mM HEPES, pH 7.5, 150 mM NaCl, 15% glycerol, 0.15% TRITON X-100, 10 mM DTT, and 0.1% PEG 8000. NS3 and NS4A protease is pre-incubated with various concentrations of inhibitors in DMSO for 30 min. The reaction is initiated by adding the TRF peptide substrate (final concentration 25 nM). NS3 mediated hydrolysis of the substrate was run for 2.5 hours at room temperature. Product fluorescence is detected using A Pherastar Plus plate reader (BMG) or Envision (Perkin Elmer Life and Analytical Sciences with excitation at 340 nm and emission at 615 nm using the appropriate delay time optimized for the europium fluorescence probe. Testing concentrations of different enzyme forms are selected to result in a signal to background ratio (S/B) of 10-30. IC50 values are derived using a standard four-parameter fit to the data. Ki values are derived from IC50 values using the following formula, IC50=Ki(1+[S]/KM), Eqn (1), where [S] is the concentration of substrate peptide in the reaction and KM is the Michaelis constant. See P. Gallinari et al., 38 BIOCHEM. 5620-32 (1999); P. Gallinari et al., 72 J. VIROL. 6758-69 (1998); M. Taliani et al., 240 ANAL. BIOCHEM. 60-67 (1996); Mao et al., Analytical Biochemistry 373: 1-8, 2008.\n(§3) The assay described above was run against genotype 1b at a concentration of 0.2 nM, against A156T mutant strains at a concentration of 0.4 nM, and against genotype 3a at a concentration of 0.025 nM."}, "HCV genotype 1b replicon": {"system": "HCV genotype 1b replicon", "experiment": "HCV replicon assay, genotype 1b replicon EC50", "type": "cell-based, Hepatitis C virus", "details": "Hepatitis C virus, read-out: EC50 [gt-1b]", "procedure,_shortened": "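Cells harbouring a stable replicon are grown under G418 selection, then plated with test compound in G418-free medium for 24-48 hours. After washing and lysis, RNA or luciferase signal is measured and expressed as percent of DMSO control to give EC50.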"}, "[3]": {"biological_target": "HCV NS3/4A protease genotype 3a (Hepatitis C virus genotype 3a, UniProt Q81495)", "experiment": "HCV NS3/4A protease time-resolved fluorescence (TRF) assay, Ki against genotype 3a", "type": "biochemical", "description": "as §1, §2, §3"}, "[4]": {"details": "IC50 [gt-1b] (nM), NS3/4A genotype 1b, enzyme 0.2 nM"}, "[5]": {"details": "NS3/4A gt-1b A156T mutant, enzyme 0.4 nM"}, "[6]": {"details": "IC50 [gt-1b] (nM), NS3/4A genotype 1b, enzyme 0.2 nM, K+ salt"}, "[7]": {"details": "NS3/4A gt-1b A156T mutant, enzyme 0.4 nM, K+ salt"}}, "note": "Like-named read-outs stand apart in the source and are kept apart here.", "data": [{"smiles": "Cc1nc2ccccc2c2c1O[C@]1(CC2)C[C@H]2C(=O)N[C@]3(C(=O)NS(=O)(=O)C4(C)CC4)C[C@H]3/C=C\\CCCCC[C@H](NC(=O)OC(C)(C)C)C(=O)N2C1", "note": "[Example 74, tert-butyl [(2R,6S,12Z,13aS,14aR,16aS)-5′-methyl-14a-{[(1-methylcyclopropyl)sulfonyl]carbamoyl}-5,16-dioxo-1,1′,2′,5,6,7,8,9,10,11,13a,14,14a,15,16,16a-hexadecahydrospiro[cyclopropa[e]pyrrolo[1,2-a][1,4]diazacyclopentadecine-2,3′-pyrano[2,3-c]quinolin]-6-yl]carbamate]", "values": [{"measurement": "IC50", "setting": "[1]; [4]", "value": 0.008, "unit": "nM"}, {"measurement": "IC50", "setting": "[2]; [5]", "value": 0.124, "unit": "nM"}, {"measurement": "EC50", "setting": "HCV genotype 1b replicon; genotype 1b replicon", "value": 2.48, "unit": "nM"}, {"measurement": "IC50", "setting": "[3]", "value": 0.572, "unit": "nM"}]}, {"smiles": "Cc1nc2ccc(Cl)cc2c2c1O[C@]1(CC2)C[C@H]2C(=O)N[C@]3(C(=O)NS(=O)(=O)C4(C)CC4)C[C@H]3/C=C\\CCCCC[C@H](NC(=O)OCC(C)C)C(=O)N2C1", "note": "[Example 189, 2-methylpropyl [(2R,6S,12Z,13aS,14aR,16aS)-9′-chloro-5′-methyl-14a-{[(1-methylcyclopropyl)sulfonyl]carbamoyl}-5,16-dioxo-1,1′,2′,5,6,7,8,9,10,11,13a,14,14a,15,16,16a-hexadecahydrospiro[cyclopropa[e]pyrrolo[1,2-a][1,4]diazacyclopentadecine-2,3′-pyrano[2,3-c]quinolin]-6-yl]carbamate]", "values": [{"measurement": "IC50", "setting": "[1]; [6]", "value": 0.002, "unit": "nM"}, {"measurement": "IC50", "setting": "[2]; [7]", "value": 0.062, "unit": "nM"}, {"measurement": "EC50", "setting": "HCV genotype 1b replicon; genotype 1b replicon, K+ salt", "value": 6.42, "unit": "nM"}, {"measurement": "IC50", "setting": "[3]", "value": 0.394, "unit": "nM"}]}, {"smiles": "Cc1nc2cc(F)c(F)cc2c2c1O[C@]1(CC2)C[C@H]2C(=O)N[C@]3(C(=O)NS(=O)(=O)C4(C)CC4)C[C@H]3/C=C\\CCCCC[C@H](NC(=O)OC(C)C)C(=O)N2C1", "note": "[Example 194, propan-2-yl [(2R,6S,12Z,13aS,14aR,16aS)-8′,9′-difluoro-5′-methyl-14a-{[(1-methylcyclopropyl)sulfonyl]carbamoyl}-5,16-dioxo-1,1′,2′,5,6,7,8,9,10,11,13a,14,14a,15,16,16a-hexadecahydrospiro[cyclopropa[e]pyrrolo[1,2-a][1,4]diazacyclopentadecine-2,3′-pyrano[2,3-c]quinolin]-6-yl]carbamate]", "values": [{"measurement": "IC50", "setting": "[1]; [6]", "value": 0.007, "unit": "nM"}, {"measurement": "IC50", "setting": "[2]; [7]", "value": 0.0541, "unit": "nM"}, {"measurement": "EC50", "setting": "HCV genotype 1b replicon; genotype 1b replicon, K+ salt", "value": 8.28, "unit": "nM"}, {"measurement": "IC50", "setting": "[3]", "value": 0.994, "unit": "nM"}]}, {"smiles": "Cc1nc2cc(F)c(F)cc2c2c1O[C@]1(CC2)C[C@H]2C(=O)N[C@]3(C(=O)NS(=O)(=O)C4(C)CC4)C[C@H]3/C=C\\CCCCC[C@H](NC(=O)OC3(C)CC3)C(=O)N2C1", "note": "[Example 195, 1-methylcyclopropyl [(2R,6S,12Z,13aS,14aR,16aS)-8′,9′-difluoro-5′-methyl-14a-{[(1-methylcyclopropyl)sulfonyl]carbamoyl}-5,16-dioxo-1,1′,2′,5,6,7,8,9,10,11,13a,14,14a,15,16,16a-hexadecahydrospiro[cyclopropa[e]pyrrolo[1,2-a][1,4]diazacyclopentadecine-2,3′-pyrano[2,3-c]quinolin]-6-yl]carbamate]", "values": [{"measurement": "IC50", "setting": "[1]; [6]", "value": 0.01, "unit": "nM"}, {"measurement": "IC50", "setting": "[2]; [7]", "value": 0.134, "unit": "nM"}, {"measurement": "EC50", "setting": "HCV genotype 1b replicon; genotype 1b replicon, K+ salt", "value": 8.67, "unit": "nM"}, {"measurement": "IC50", "setting": "[3]", "value": 1.73, "unit": "nM"}]}, {"smiles": "COc1ccc2nc(C)c3c(c2c1)CC[C@]1(C[C@H]2C(=O)N[C@]4(C(=O)NS(=O)(=O)C5(C)CC5)C[C@H]4/C=C\\CCCCC[C@H](NC(=O)OC4(C)COC4)C(=O)N2C1)O3", "note": "[Example 198, 3-methyloxetan-3-yl [(2R,6S,12Z,13aS,14aR,16aS)-9′-methoxy-5′-methyl-14a-{[(1-methylcyclopropyl)sulfonyl]carbamoyl}-5,16-dioxo-1,1′,2′,5,6,7,8,9,10,11,13a,14,14a,15,16,16a-hexadecahydrospiro[cyclopropa[e]pyrrolo[1,2-a][1,4]diazacyclopentadecine-2,3′-pyrano[2,3-c]quinolin]-6-yl]carbamate]", "values": [{"measurement": "IC50", "setting": "[1]; [4]", "value": 0.006, "unit": "nM"}, {"measurement": "IC50", "setting": "[2]; [5]", "value": 0.104, "unit": "nM"}, {"measurement": "EC50", "setting": "HCV genotype 1b replicon; genotype 1b replicon", "value": 9.19, "unit": "nM"}, {"measurement": "IC50", "setting": "[3]", "value": 0.561, "unit": "nM"}]}, {"smiles": "COc1ccc2nc(C)c3c(c2c1)CC[C@]1(C[C@H]2C(=O)N[C@]4(C(=O)NS(=O)(=O)C5(C)CC5)C[C@H]4/C=C\\CCCCC[C@H](NC(=O)OC4CCC4)C(=O)N2C1)O3", "note": "[Example 199, cyclobutyl [(2R,6S,12Z,13aS,14aR,16aS)-9′-methoxy-5′-methyl-14a-{[(1-methylcyclopropyl)sulfonyl]carbamoyl}-5,16-dioxo-1,1′,2′,5,6,7,8,9,10,11,13a,14,14a,15,16,16a-hexadecahydrospiro[cyclopropa[e]pyrrolo[1,2-a][1,4]diazacyclopentadecine-2,3′-pyrano[2,3-c]quinolin]-6-yl]carbamate]", "values": [{"measurement": "IC50", "setting": "[1]; [6]", "value": 0.003, "unit": "nM"}, {"measurement": "IC50", "setting": "[2]; [7]", "value": 0.0462, "unit": "nM"}, {"measurement": "EC50", "setting": "HCV genotype 1b replicon; genotype 1b replicon, K+ salt", "value": 1, "unit": "nM"}, {"measurement": "IC50", "setting": "[3]", "value": 0.287, "unit": "nM"}]}, {"smiles": "Cc1nc2ccc(C(F)(F)F)cc2c2c1O[C@]1(CC2)C[C@H]2C(=O)N[C@]3(C(=O)NS(=O)(=O)C4(C)CC4)C[C@H]3/C=C\\CCCCC[C@H](NC(=O)OCC(C)(C)C)C(=O)N2C1", "note": "[Example 255, 2,2-dimethylpropyl [(2R,6S,12Z,13aS,14aR,16aS)-5′-methyl-14a-{[(1-methylcyclopropyl)sulfonyl]carbamoyl}-5,16-dioxo-9′-(trifluoromethyl)-1,1′,2′,5,6,7,8,9,10,11,13a,14,14a,15,16,16a-hexadecahydrospiro[cyclopropa[e]pyrrolo[1,2-a][1,4]diazacyclopentadecine-2,3′-pyrano[2,3-c]quinolin]-6-yl]carbamate]", "values": [{"measurement": "IC50", "setting": "[1]; [4]", "value": 0.015, "unit": "nM"}, {"measurement": "IC50", "setting": "[2]; [5]", "value": 0.679, "unit": "nM"}, {"measurement": "EC50", "setting": "HCV genotype 1b replicon; genotype 1b replicon", "value": 50.9, "unit": "nM"}, {"measurement": "IC50", "setting": "[3]", "value": 2.86, "unit": "nM"}]}, {"smiles": "COc1ccc2nc(C)c3c(c2c1)C(F)(F)C[C@]1(C[C@H]2C(=O)N[C@]4(C(=O)NS(=O)(=O)C5(C)CC5)C[C@H]4/C=C\\CCCCC[C@H](NC(=O)OCC(C)C)C(=O)N2C1)O3", "note": "[Example 266, 2-methylpropyl [(2S,6S,12Z,13aS,14aR,16aS)-1′,1′-difluoro-9′-methoxy-5′-methyl-14a-{[(1-methylcyclopropyl)sulfonyl]carbamoyl}-5,16-dioxo-1,1′,2′,5,6,7,8,9,10,11,13a,14,14a,15,16,16a-hexadecahydrospiro[cyclopropa[e]pyrrolo[1,2-a][1,4]diazacyclopentadecine-2,3′-pyrano[2,3-c]quinolin]-6-yl]carbamate]", "values": [{"measurement": "IC50", "setting": "[1]; [6]", "value": 0.014, "unit": "nM"}, {"measurement": "IC50", "setting": "[2]; [7]", "value": 0.384, "unit": "nM"}, {"measurement": "EC50", "setting": "HCV genotype 1b replicon; genotype 1b replicon, K+ salt", "value": 4.47, "unit": "nM"}, {"measurement": "IC50", "setting": "[3]", "value": 2.1, "unit": "nM"}]}, {"smiles": "COc1ccc2nc(C)c3c(c2n1)CC[C@]1(C[C@H]2C(=O)N[C@]4(C(=O)NS(=O)(=O)C5(C)CC5)C[C@H]4/C=C\\CCCCC[C@H](NC(=O)OCC(C)(C)C)C(=O)N2C1)O3", "note": "[Example 361, 2,2-dimethylpropyl [(2R,6S,12Z,13aS,14aR,16aS)-2′-methoxy-6′-methyl-14a-{[(1-methylcyclopropyl)sulfonyl]carbamoyl}-5,16-dioxo-1,5,6,7,8,9,9′,10,10′,11,13a,14,14a,15,16,16a-hexadecahydrospiro[cyclopropa[e]pyrrolo[1,2-a][1,4]diazacyclopentadecine-2,8′-pyrano[2,3-c][1,5]naphthyridin]-6-yl]carbamate]", "values": [{"measurement": "IC50", "setting": "[1]; IC50 [gt-1b], NS3/4A protease TRF assay, genotype 1b enzyme 0.2 nM", "value": 0.012, "unit": "nM"}, {"measurement": "IC50", "setting": "[2]; NS3/4A protease TRF assay, A156T mutant enzyme 0.4 nM", "value": 0.241, "unit": "nM"}, {"measurement": "EC50", "setting": "HCV genotype 1b replicon; HCV replicon, genotype 1b", "value": 4.43, "unit": "nM"}, {"measurement": "IC50", "setting": "[3]", "value": 0.433, "unit": "nM"}]}]}
